Reference: US6375928B1, “Neutrophil stimulating peptides” (Peptech Limited, priority 1990, dated 2002)
Where no end group is shown, it is not given here. The star is where a group is joined. Acm = CC(=O)NC*

Experiments:
Format in all cases: cell-based
[1] = system: human neutrophils; assay: Chemiluminescence assay: priming of neutrophils for F-met-leu-phe response (respiratory burst); details: for Chemiluminescence, neutrophil respiratory burst: 100 ug peptide, second, Table 4; for lucigenin dependent chemiluminescence, peak of response: 20 min pretreatment before f-met-leu-phe; for Chemiluminescence mean + sem: priming neutrophils for respiratory burst
Description: Purified human neutrophils were pretreated with peptide for 20 minutes before the addition of f-met-leu-phe. The lucigenin dependent chemiluminescence response, which reflects superoxide production, was then measured. The results obtained are set out in Table 2 and are expressed as mV of lucigenin dependent chemiluminescence and represent the maximal cell activity attained.
Results are expressed as mV of lucigenin dependent chemiluminescence and represent peak of response i.e. the maximal cell activity attained.

[2] = system: monocytes; assay: Priming of monocytes for a respiratory burst (chemiluminescence); details: with fMLP; 10^6 monocytes/tube/ml; 419 100 μg/10^6 monocytes, 50 U TNF or no pre-treatment, 30 min pre-incubation 37° C.
Description: Peptide 419 (SEQ ID NO. 18) was assayed for its ability to prime monocytes for a respiratory burst. This assay was conducted essentially as described above for neutrophils except that the cells were cultured for 24 hours prior to assay.

[3] = system: neutrophils; assay: Chemotactic properties, neutrophil migration under agarose; details: towards agent well; 1 × 10^−7 M fMLP, peptide, or 10^3 U/ml TNFα; 2×10^5 neutrophils
Description: 5 μl of neutrophils (2×10^5 cells) were added to the inner well, with chemotactic agent or control medium added to the outer wells. Migration at various time intervals was then measured.

| Molecule | lucigenin dependent chemiluminescence, peak of response ([1]; peptide 1 μg/10^6 cells) [mV] | lucigenin dependent chemiluminescence, peak of response ([1]; peptide 10 μg/10^6 cells) [mV] | lucigenin dependent chemiluminescence, peak of response ([1]; peptide 100 μg/10^6 cells) [mV] | other results |
| --- | --- | --- | --- | --- |
| A V S Y Q T K V N L L (AVSYQTKVNLL) [Peptide 396] |  |  |  | Chemiluminescence, neutrophil respiratory burst [1]: 0.70 mV |
| A E G Q L Q W L N R R A N A L L A N G (AEGQLQWLNRRANALLANG) [Peptide 307] | 0.35 | 0.37 | 0.42 |  |
| L R D N Q L V V P S E G L Y L I (LRDNQLVVPSEGLYLI) [Peptide 302] | 0.16 | 0.18 | 0.29 |  |
| V R S S S R T P S D K P V A H V V A (VRSSSRTPSDKPVAHVVA) [Peptide 301] | 0.93 | 0.74 | 0.55 | lucigenin dependent chemiluminescence, peak of response ([1]; peptide 500 μg/10^6 cells): 1.10 mV |
| K G Q G Cys (Acm) P S T H V L L T H T (KGQGC(Acm)PSTHVLLTHT) [Peptide 462, reference compound] |  |  |  | priming of neutrophils for the respiratory burst associated with f-met-leu-phe treatment (in words) [1]: does not possess the biological activity of those peptides; Chemiluminescence mean + sem ([1]; 1 μg peptide): 3.1 ± 0.5 mV; Chemiluminescence mean + sem ([1]; 10 μg peptide): 4.8 ± 0.7 mV; Chemiluminescence mean + sem ([1]; 100 μg peptide): 4.8 ± 0.5 mV |
| P S A H V L L T H T I (PSAHVLLTHTI) [Peptide 418] |  |  |  | neutrophil stimulating activity / stimulation of neutrophil respiratory burst (in words) [1]: neutrophil stimulating activity |
| CSCC[C@H](NC=O)C(=O)N[C@@H](CC(C)C)C(=O)N[C@@H](Cc1ccccc1)C(=O)O [fMLP, N-formyl-L-methionyl-L-leucyl-L-phenylalanine, reference compound] |  |  |  | Peak mV Chemiluminescence, Mean ± S.D. [2]: 109.0 ± 7.071 mV; Peak mV Chemiluminescence, experiment 2 [2]: 114.0 mV; Migration distance at 1.5 h, Agent [3]: 1.46 mm; Migration distance at 2.5 h, Agent [3]: 2.45 mm |
| T I S R I A V S Y Q T (TISRIAVSYQT) [Peptide 323] | 0.23 | 0.17 | 0.47 | priming of neutrophils for the respiratory burst associated with f-met-leu-phe treatment (in words) [1]: not found to be capable of priming neutrophils |
| A K P W Y E P I Y L (AKPWYEPIYL) [Peptide 275] | 0.99 | 0.69 | 0.43 | lucigenin dependent chemiluminescence, peak of response ([1]; peptide 500 μg/10^6 cells): 0.80 mV |
| L S A E I N R P D Y L D F A E S G Q V (LSAEINRPDYLDFAESGQV) [Peptide 305] | 0.27 | 0.36 | 0.24 |  |
| V A H V V A N P Q A E G Q L (VAHVVANPQAEGQL) [Peptide 306] | 0.27 | 0.35 | 0.23 |  |
| L S A I K S P C Q R E T P E G A (LSAIKSPCQRETPEGA) [Peptide 303] | 0.23 | 0.17 | 0.22 |  |
| S R I A V S Y Q T K V N L L (SRIAVSYQTKVNLL) [Peptide 394] |  |  |  | Chemiluminescence, neutrophil respiratory burst [1]: 0.33 mV |
| L T H T I S R I A (LTHTISRIA) [Peptide 393] |  |  |  | Chemiluminescence, neutrophil respiratory burst [1]: 0.31 mV |
